What was measured:
Type in all cases: cell-based
[1] = system: microfilariae of Dirofilaria immitis; assay: Dirofilaria immitis, Microfilaria (DiMF) In vitro Assay; conditions: 72 h, read-out: DiMF Minimum Effective Dose (MED), approximately 72 hours incubation, microfilariae assessed for survival or paralysis
[2] = system: 4th stage larvae (L4) of Dirofilaria immitis; assay: Dirofilaria immitis, L4 Stage (DiL4) In Vitro Assay; conditions: Dirofilaria immitis, 72 h, read-out: DiL4 Minimum Effective Dose (MED), approximately 72 hours incubation; L4 larvae assessed for survival or paralysis
[3] = system: third stage larvae of Haemonchus contortus; assay: Haemonchus contortus L3 (HcL3) Assay; conditions: 96 h, read-out: HcL3 Minimum Effective Dose (MED)

SMILES | minimal effective concentration [1] | minimal effective concentration [2] | minimal effective concentration [3]
CC(C)C[C@H]1C(=O)O[C@H](Cc2ccc(Cn3nccc3C3CC3)cc2)C(=O)N(C)[C@@H](CC(C)C)C(=O)O[C@H](C)C(=O)N(C)[C@@H](CC(C)C)C(=O)O[C@H](Cc2ccccc2)C(=O)N(C)[C@@H](CC(C)C)C(=O)O[C@H](C)C(=O)N1C [Example 2-66, (3S,6R,9S,12R,15S,18R,21S,24R)-6-benzyl-18-(4-((5-cyclopropyl-1H-pyrazol-1-yl)methyl)benzyl)-3,9,15,21-tetraisobutyl-4,10,12,16,22,24-hexamethyl-1,7,13,19-tetraoxa-4,10,16,22-tetraazacyclotetracosan-2,5,8,11,14,17,20,23-octaone] | 0.001 to 0.01 µM | 0.0001 to 0.001 µM | 1 to 10 µM
CC(C)C[C@H]1C(=O)O[C@H](Cc2ccc(Cn3nccc3C(C)C)cc2)C(=O)N(C)[C@@H](CC(C)C)C(=O)O[C@H](C)C(=O)N(C)[C@@H](CC(C)C)C(=O)O[C@H](Cc2ccccc2)C(=O)N(C)[C@@H](CC(C)C)C(=O)O[C@H](C)C(=O)N1C [Example 2-69, (3S,6R,9S,12R,15S,18R,21S,24R)-6-benzyl-3,9,15,21-tetraisobutyl-18-(4-((5-isopropyl-1H-pyrazol-1-yl)methyl)benzyl)-4,10,12,16,22,24-hexamethyl-1,7,13,19-tetraoxa-4,10,16,22-tetraazacyclotetracosan-2,5,8,11,14,17,20,23-octaone] | 0.001 to 0.01 µM | 0.0001 to 0.001 µM | 1 to 10 µM
CC(C)C[C@H]1C(=O)O[C@H](Cc2ccc(Cn3cnc(Br)c3)cc2)C(=O)N(C)[C@@H](CC(C)C)C(=O)O[C@H](C)C(=O)N(C)[C@@H](CC(C)C)C(=O)O[C@H](Cc2ccc(Cn3cnc(Br)c3)cc2)C(=O)N(C)[C@@H](CC(C)C)C(=O)O[C@H](C)C(=O)N1C [Example 6-12, (3S,6R,9S,12R,15S,18R,21S,24R)-6,18-bis(4-((4-bromo-1H-imidazol-1-yl)methyl)benzyl)-3,9,15,21-tetraisobutyl-4,10,12,16,22,24-hexamethyl-1,7,13,19-tetraoxa-4,10,16,22-tetraazacyclotetracosan-2,5,8,11,14,17,20,23-octaone] | 0.001 to 0.01 µM | ≤ 0.0001 µM | 1 to 10 µM
CC(C)C[C@H]1C(=O)O[C@H](Cc2cccc(Cn3ccnc3Cl)c2)C(=O)N(C)[C@@H](CC(C)C)C(=O)O[C@H](C)C(=O)N(C)[C@@H](CC(C)C)C(=O)O[C@H](Cc2ccc(Cn3ccnc3Cl)cc2)C(=O)N(C)[C@@H](CC(C)C)C(=O)O[C@H](C)C(=O)N1C [Example 7-9, (3S,6R,9S,12R,15S,18R,21S,24R)-6-(3-((2-chloro-1H-imidazol-1-yl)methyl)benzyl)-18-(4-((2-chloro-1H-imidazol-1-yl)methyl)benzyl)-3,9,15,21-tetraisobutyl-4,10,12,16,22,24-hexamethyl-1,7,13,19-tetraoxa-4,10,16,22-tetraazacyclotetracosan-2,5,8,11,14,17,20,23-octaone] | 0.001 to 0.01 µM | 0.0001 to 0.001 µM | 1 to 10 µM
CC(C)C[C@H]1C(=O)O[C@H](Cc2ccc(Cn3ccnc3Br)cc2)C(=O)N(C)[C@@H](CC(C)C)C(=O)O[C@H](C)C(=O)N(C)[C@@H](CC(C)C)C(=O)O[C@H](Cc2ccccc2)C(=O)N(C)[C@@H](CC(C)C)C(=O)O[C@H](C)C(=O)N1C [Example 8-3, (3S,6R,9S,12R,15S,18R,21S,24R)-6-benzyl-18-[[4-[(2-bromoimidazol-1-yl)methyl]phenyl]methyl]-3,9,15,21-tetraisobutyl-4,10,12,16,22,24-hexamethyl-1,7,13,19-tetraoxa-4,10,16,22-tetrazacyclotetracosane-2,5,8,11,14,17,20,23-octaone] | 0.001 to 0.01 µM | 0.0001 to 0.001 µM | 1 to 10 µM
CC(C)C[C@H]1C(=O)O[C@H](Cc2ccc(Cn3cnc(Br)c3)cc2)C(=O)N(C)[C@@H](CC(C)C)C(=O)O[C@H](C)C(=O)N(C)[C@@H](CC(C)C)C(=O)O[C@H](Cc2ccccc2)C(=O)N(C)[C@@H](CC(C)C)C(=O)O[C@H](C)C(=O)N1C [Example 8-15, (3S,6R,9S,12R,15S,18R,21S,24R)-6-benzyl-18-(4-((4-bromo-1H-imidazol-1-yl)methyl)benzyl)-3,9,15,21-tetraisobutyl-4,10,12,16,22,24-hexamethyl-1,7,13,19-tetraoxa-4,10,16,22-tetraazacyclotetracosan-2,5,8,11,14,17,20,23-octaone] | 0.001 to 0.01 µM | 0.0001 to 0.001 µM | 1 to 10 µM
CC(C)C[C@H]1C(=O)O[C@H](Cc2ccc(Cn3cc(C(F)(F)F)ccc3=O)cc2)C(=O)N(C)[C@@H](CC(C)C)C(=O)O[C@H](C)C(=O)N(C)[C@@H](CC(C)C)C(=O)O[C@H](Cc2ccc(Cn3cc(C(F)(F)F)ccc3=O)cc2)C(=O)N(C)[C@@H](CC(C)C)C(=O)O[C@H](C)C(=O)N1C [Example 9-22, (3S,6R,9S,12R,15S,18R,21S,24R)-3,9,15,21-tetraisobutyl-4,6,10,16,18,22-hexamethyl-12,24-bis(4-((2-oxo-5-(trifluoromethyl)pyridin-1 (2H)-yl)methyl)benzyl)-1,7,13,19-tetraoxa-4,10,16,22-tetraazacyclotetracosan-2,5,8,11,14,17,20,23-octaone] | 0.001 to 0.01 µM | 0.001 to 0.01 µM | 1 to 10 µM
Cc1ccc(C#N)n1Cc1ccc(C[C@H]2OC(=O)[C@H](CC(C)C)N(C)C(=O)[C@@H](C)OC(=O)[C@H](CC(C)C)N(C)C(=O)[C@@H](Cc3ccc(Cn4c(C)ccc4C#N)cc3)OC(=O)[C@H](CC(C)C)N(C)C(=O)[C@@H](C)OC(=O)[C@H](CC(C)C)N(C)C2=O)cc1 [Example 9-48, 1,1′-(((((2R,5S,8R,11 S,14R,17S,20R,23S)-5,11,17,23-tetraisobutyl-4,8,10,16,20,22-hexamethyl-3,6,9,12,15,18,21,24-octaoxo-1,7,13,19-tetraoxa-4,10,16,22-tetraazacyclotetracosane-2,14-diyl)bis(methylene))bis(4,1-phenylene))bis(methylene))bis(5-methyl-1H-pyrrole-2-carbonitrile)] | 0.001 to 0.01 µM | ≤ 0.0001 µM | ≤ 1 µM
CC(C)C[C@H]1C(=O)O[C@H](Cc2ccc(Cn3ncnc3C(C)(C)C)cc2)C(=O)N(C)[C@@H](CC(C)C)C(=O)O[C@H](C)C(=O)N(C)[C@@H](CC(C)C)C(=O)O[C@H](Cc2ccc(Cn3ncnc3C(C)(C)C)cc2)C(=O)N(C)[C@@H](CC(C)C)C(=O)O[C@H](C)C(=O)N1C [Example 9-51, (3S,6R,9S,12R,15S,18R,21S,24R)-6,18-bis(4-((5-(tert-butyl)-1H-1,2,4-triazol-1-yl)methyl)benzyl)-3,9,15,21-tetraisobutyl-4,10,12,16,22,24-hexamethyl-1,7,13,19-tetraoxa-4,10,16,22-tetraazacyclotetracosan-2,5,8,11,14,17,20,23-octaone] | 0.001 to 0.01 µM | 0.001 to 0.01 µM | 1 to 10 µM
CC(C)C[C@H]1C(=O)O[C@H](Cc2ccc(Cn3ncnc3C3CCCC3)cc2)C(=O)N(C)[C@@H](CC(C)C)C(=O)O[C@H](C)C(=O)N(C)[C@@H](CC(C)C)C(=O)O[C@H](Cc2ccc(Cn3ncnc3C3CCCC3)cc2)C(=O)N(C)[C@@H](CC(C)C)C(=O)O[C@H](C)C(=O)N1C [Example 9-52, (3S,6R,9S,12R,15S,18R,21S,24R)-6,18-bis(4-((5-cyclopentyl-1H-1,2,4-triazol-1-yl)methyl)benzyl)-3,9,15,21-tetraisobutyl-4,10,12,16,22,24-hexamethyl-1,7,13,19-tetraoxa-4,10,16,22-tetraazacyclotetracosan-2,5,8,11,14,17,20,23-octaone] | 0.001 to 0.01 µM | 0.001 to 0.01 µM | 1 to 10 µM
CC(C)Cc1ncnn1Cc1ccc(C[C@H]2OC(=O)[C@H](CC(C)C)N(C)C(=O)[C@@H](C)OC(=O)[C@H](CC(C)C)N(C)C(=O)[C@@H](Cc3ccc(Cn4ncnc4CC(C)C)cc3)OC(=O)[C@H](CC(C)C)N(C)C(=O)[C@@H](C)OC(=O)[C@H](CC(C)C)N(C)C2=O)cc1 [Example 9-53, (3S,6R,9S,12R,15S,18R,21S,24R)-3,9,15,21-tetraisobutyl-6,18-bis(4-((5-isobutyl-1H-1,2,4-triazol-1-yl)methyl)benzyl)-4,10,12,16,22,24-hexamethyl-1,7,13,19-tetraoxa-4,10,16,22-tetraazacyclotetracosan-2,5,8,11,14,17,20,23-octaone] | 0.001 to 0.01 µM | 0.001 to 0.01 µM | 1 to 10 µM
CC(C)C[C@H]1C(=O)O[C@H](Cc2ccc(Cn3ncnc3CC(C)(C)C)cc2)C(=O)N(C)[C@@H](CC(C)C)C(=O)O[C@H](C)C(=O)N(C)[C@@H](CC(C)C)C(=O)O[C@H](Cc2ccc(Cn3ncnc3CC(C)(C)C)cc2)C(=O)N(C)[C@@H](CC(C)C)C(=O)O[C@H](C)C(=O)N1C [Example 9-56, (3S,6R,9S,12R,15S,18R,21S,24R)-3,9,15,21-tetraisobutyl-4,6,10,16,18,22-hexamethyl-12,24-bis(4-((5-neopentyl-1H-1,2,4-triazol-1-yl)methyl)benzyl)-1,7,13,19-tetraoxa-4,10,16,22-tetraazacyclotetracosan-2,5,8,11,14,17,20,23-octaone] | 0.001 to 0.01 µM | 0.001 to 0.01 µM | 1 to 10 µM
Cc1ccc(C#N)n1Cc1ccc(C[C@H]2OC(=O)[C@H](CC(C)C)N(C)C(=O)[C@@H](C)OC(=O)[C@H](CC(C)C)N(C)C(=O)[C@@H](Cc3ccccc3)OC(=O)[C@H](CC(C)C)N(C)C(=O)[C@@H](C)OC(=O)[C@H](CC(C)C)N(C)C2=O)cc1 [Example 10-30, 1-(4-(((2R,5S,8R,11S,14R,17S,20R,23S)-14-benzyl-5,11,17,23-tetraisobutyl-4,8,10,16,20,22-hexamethyl-3,6,9,12,15,18,21,24-octaoxo-1,7,13,19-tetraoxa-4,10,16,22-tetraazacyclotetracosan-2-yl)methyl)benzyl)-5-methyl-1H-pyrrole-2-carbonitrile] | 0.001 to 0.01 µM | 0.0001 to 0.001 µM | 1 to 10 µM
